Assay results published in US10052301B2, “Derivatives of propane diyl dicinnamate” (ORX PHARMACEUTICAL CORPORATION, priority 2009, dated 2018).
Where two headings read alike, the source gives them in different places.

Experiments:
B16-BL6 = settings: Banskota et al., J Ethnopharmacol 2002; read-out: EC50 against B16-BL6; cited from earlier work
[1] = tested on: A549 (human lung carcinoma cells); test: MTT cell proliferation and viability assay, A549; format: cell-based; settings: for EC50: Table 2, 72 h; for IC50: Table 3, 72 h, read-out: Inhibition Concentration (IC50) μM A549 (Lung)
Protocol: (§1) Normal human fibroblast cell lines (GM9503 and GM8399) and human carcinoma cell lines MCF-7, A549, HCT116, SKOV-3 and PC-3 were maintained in DMEM (Dulbeco's Modified Essential Medium) supplemented with 10% FBS (Fetal Bovine Serum). In addition, murine leukemia MDAY-D2 cells were maintained in RPMI 1640 media supplemented with 5% FBS. All media were supplemented with 100 […] (all from Hyclone, Logan, Utah). Cells were incubated in a humidified air atmosphere containing 5% CO2 at 37° C.
(§2) Cell growth and viability were measured using the 3-(4,5-dimethythiazol-2-yl)-2,5-diphenyl tetrazolium bromide (MTT) reduction assay. MTT reagent (Sigma, St. Louis, Mo.) was prepared at 5 mg/ml in ddH2O (5× solution), filter sterilized and stored in the dark at −20° C.
(§3) To determine the optimal number of cells to seed per well, preliminary experiments were conducted examining increasing cell densities in 96 well plates. Cell were seeded at various densities and examined under the microscope after 96 h. Based on these experiments and growth curve analyses, optimal cell densities were selected for each cell line. In brief, exponentially growing cells were harvested and 100 μL of cell suspension containing approximately 2000 cells was plated in 96-well microtiter plates. After 24 hours of incubation to allow for cell attachment, cells were treated with varying concentrations of test samples in medium (60 μL/well) supplemented with 5% FBS and incubated for 72 h at 37° C. under 5% CO2. Three hours after the addition of MTT, the amount of formazan formed was measured spectrophotometrically at 570 nm with a Spectramax Plus 384 plate reader.
(§4) To assess the effects of the novel compounds on growth and viability, GM9503 (normal human fibroblast cells; 2.08×10^3 cells/well), GM8399 (normal human fibroblast cells; 2.04×10^3 cells/well), A549 (human lung carcinoma cells; 2.05×10^3 cells/well), HCT116 (human colon carcinoma cells; 2.19×10^3 cells/well), MCF-7 (human breast carcinoma cells; 2.19×10^3 cells/well), SKOV-3 (human ovarian carcinoma cells; 2.10×10^3 cells/well), PC-3 (human prostate carcinoma cells; 2.08×10^3 cells/well) and MDAY-D2 (murine leukemia cells; 2.5×10^3 cells/well) were seeded in 96 well plates in supplemented medium. Twenty-four hours post-seeding, cells were treated with either DMEM supplemented with 5% FBS (as a control) or with compounds (IIb), (Ie) and (Id) at increasing concentrations. After incubation for 72 h, cell growth and viability were measured. Each compound was tested in triplicate and the data shown in Tables 2-4 represent the mean of viable cells compared to medium control.

[2] = tested on: HCT116 (human colon carcinoma cells); test: MTT cell proliferation and viability assay, HCT116; format: cell-based; settings: for IC50: HCT-116, Table 3, 72 h, read-out: Inhibition Concentration (IC50) μM HCT116 (Colon); for EC50: HCT-116, Table 2, 72 h
Protocol: as §1, §2, §3, §4

[3] = tested on: PC-3 (human prostate carcinoma cells); test: MTT cell proliferation and viability assay, PC-3; format: cell-based; settings: Table 3, 72 h, read-out: Inhibition Concentration (IC50) μM PC-3 (Prostate)
Protocol: as §1, §2, §3, §4

[4] = tested on: MDAY-D2 (murine leukemia cells); test: MTT cell proliferation and viability assay, MDAY-D2; format: cell-based
Protocol: as §1, §2, §3, §4

[5] = tested on: MCF-7 (human breast carcinoma cells); test: MTT cell proliferation and viability assay, MCF-7; format: cell-based; settings: for EC50: MCF7, Table 2, 72 h; for IC50: MCF7, Table 3, 72 h, read-out: Inhibition Concentration (IC50) μM MCF-7 (Breast)
Protocol: as §1, §2, §3, §4

B-16 melanoma cell line = test: [3H]-thymidine incorporation, in vitro anticancer activity; format: cell-based; settings: B16, 24 h + 24 h incubation
Protocol: The cell lines were maintained in EMEM medium supplemented with 10% FCS, 0.1% sodium bicarbonate and 12 mM glutamine. In a typical procedure, 1×10^4 cells were seeded into each of 96 well plate in 90 μL volume of medium. The plates were incubated for 24 h in the presence of CO2 to allow for cell attachment. After 24 h, test compounds were evaluated at five 10 fold dilutions from 1:10, 1:100, 1:1000, 1:10000 and 1:100000. To each test well 100 μL of test compound solution was added and the medium with vehicle was added to control wells and the plates were further incubated. After 24 h of incubation, 10 μL of [3H]-thymidine was added to each well to obtain a 1 μCi concentration per well and incubated for a further 24 h. The plates were terminated, cells harvested and read by microbeta plate reader.

[6] = tested on: GM8399 (normal human fibroblast cells); test: MTT cell proliferation and viability assay, GM8399; format: cell-based; settings: Table 4, comparative toxicity, 72 h, read-out: Inhibition Concentration (IC50) μM GM8399 (normal human fibroblast)
Protocol: as §1, §2, §3, §4

[7] = tested on: SKOV-3 (human ovarian carcinoma cells); test: MTT cell proliferation and viability assay, SKOV-3; format: cell-based; settings: SK-OV-3, Table 3, 72 h, read-out: Inhibition Concentration (IC50) μM SKOV-3 (Ovarian)
Protocol: as §1, §2, §3, §4

[8] = tested on: GM9503 (normal human fibroblast cells); test: MTT cell proliferation and viability assay, GM9503; format: cell-based; settings: for EC50: Table 2, 72 h, read-out: Human (EC50) μM GM9503 (Normal Skin Fibroblast); for IC50: Table 4, comparative toxicity, 72 h, read-out: Inhibition Concentration (IC50) μM GM9503 (Normal human fibroblast)
Protocol: as §1, §2, §3, §4

[9] = tested on: Human colon carcinoma cell line HCT116; test: Mechanism of action: microscopy of treated HCT116 cells over time; format: cell-based; settings: 30 μM; for cell morphology (mechanism of cell death): imaged at 2-16 h, 63x magnification
Protocol: Human colon carcinoma cell line HCT116 was treated with compounds (IIb), (Ie) and (Id) and observed over a time period to determine the mechanism of cell death. The experiment was conducted as follows:
HCT116 cells were seeded and treated with each compound. At each time point, the cells were imaged using a neutral microscope at 63× magnification prior to fixing. The time points were 2, 4, 6, 8, 12, and 16 hours.
This may potentially be caused by a population doubling at this time-point.

[10] = Mus musculus, MDAY-D2, Table 2, 72 h

CC(=O)OC(COC(=O)/C=C/c1ccc(O)cc1)COC(=O)/C=C/c1ccc(O)cc1 [(2E,2′E)-2-acetoxypropane-1,3-diyl bis(3-(4-hydroxyphenyl)acrylate)]
EC50 (B16-BL6): 81.9 µM

COc1cc(/C=C/C(=O)OCC(COC(=O)/C=C/c2ccc(O)cc2)OC(C)=O)ccc1O (stereo not shown) [(E)-2-acetoxy-3-(((E)-3-(4-hydroxy-3-methoxyphenyl)acryloyl)oxy)propyl 3-(4-hydroxyphenyl)acrylate]
EC50 (B16-BL6): 66 µM

O=C(/C=C/c1ccc(O)c(O)c1)OCc1ccccc1 [Benzyl caffeate, benzyl caffeate]
EC50 (B16-BL6): 2.03 µM

O=C(/C=C/c1ccc(O)c(O)c1)OCC(O)COC(=O)/C=C/c1ccc(O)c(O)c1 [Compound (IIb), (2E,2′E)-2-hydroxypropane-1,3-diyl bis(3-(3,4-dihroxyphenyl) acrylate]
EC50 [1]: 2.17 µM
IC50 [1]: 21 µM
IC50 [2]: 27 µM
IC50 [3]: 6.76 µM
EC50 [4, 10]: 3.4 µM
EC50 [5]: 1 µM
IC50 [5]: 74.5 µM
EC50 (B-16 melanoma cell line): 6.12 µM
IC50 [6]: 38 µM
IC50 [7]: 15.8 µM
EC50 ([8]; Homo sapiens, Fibroblast): 57.9 µM
IC50 ([8]; Homo sapiens, Fibroblast): 71.2 µM
relative aggressiveness of apoptosis induction ([9]; compared among (IIb), (Ie), (Id)): the most aggressive
cell morphology (mechanism of cell death) [9]: exhibited the characteristic membrane blebbing morphology commonly seen during apoptosis

COc1ccc(/C=C/C(=O)OCC(O)COC(=O)/C=C/c2ccccc2)cc1OC (stereo not shown) [Compound (Id), (E)-3-(cinnamoyloxy)-2-hydroxypropyl 3-(3,4-dimethoxyphenyl) acrylate]
EC50 [1]: 0.59 µM
IC50 [1]: 18.2 µM
EC50 [2]: 102 µM
IC50 [2]: 11.5 µM
IC50 [3]: 9.07 µM
EC50 [4, 10]: 5 µM
EC50 [5]: 72.2 µM
IC50 [5]: 85.2 µM
EC50 (B-16 melanoma cell line): 1.08 µM
IC50 [6]: 16 µM
IC50 [7]: 22 µM
IC50 ([8]; Homo sapiens, Fibroblast): 60 µM
cell morphology (mechanism of cell death) [9]: exhibited the characteristic membrane blebbing morphology commonly seen during apoptosis

O=C(/C=C/c1ccccc1)OCC(O)COC(=O)/C=C/c1ccc(O)c(O)c1 (stereo not shown) [Compound (Ie), (E)-3-(cinnamoyloxy)-2-hydroxypropyl 3-(3,4-dihydroxypheyl)acrylate]
EC50 [1]: 0.64 µM
IC50 [1]: 33.2 µM
EC50 [2]: 59.2 µM
IC50 [2]: 27.9 µM
IC50 [3]: 9.04 µM
EC50 [4, 10]: 1.5 µM
EC50 [5]: 25.9 µM
IC50 [5]: 33 µM
IC50 [6]: 23 µM
IC50 [7]: 16.5 µM
IC50 ([8]; Homo sapiens, Fibroblast): 37 µM
cell morphology (mechanism of cell death) [9]: exhibited the characteristic membrane blebbing morphology commonly seen during apoptosis

C[S+](C)[O-] [DMSO]
EC50 ([4]; Table 2, 72 h): 43.6 µM
EC50 [8]: 20.3 µM

O=C(O)/C=C/c1ccc(O)c(O)c1 [caffeic Acid, caffeic acid, reference compound]
IC50 [6]: 24 µM
IC50 ([8]; Homo sapiens, Fibroblast): 22 µM

O=C(/C=C/c1ccc(O)c(O)c1)OCC=Cc1ccccc1 [cinnamyl caffeate]
EC50 (B16-BL6): 1.92 µM

CC(=O)O[C@H]1C(=O)[C@@]2(C)[C@H]([C@H](OC(=O)c3ccccc3)[C@]3(O)C[C@H](OC(=O)[C@H](O)[C@@H](NC(=O)c4ccccc4)c4ccccc4)C(C)=C1C3(C)C)[C@]1(OC(C)=O)CO[C@@H]1C[C@@H]2O [paclitaxel, reference compound]
IC50 [1]: 0.69 µM
IC50 [2]: 0.59 µM
IC50 [3]: 1.32 µM
IC50 [5]: 11.7 µM
IC50 [6]: 2.1 µM
IC50 [7]: 0.75 µM
IC50 ([8]; Homo sapiens, Fibroblast): 0.7 µM

O=C(/C=C/c1ccc(O)c(O)c1)OCCc1ccccc1 [phenethyl caffeate]
EC50 (B16-BL6): 3.16 µM
